Data as given in publication PMC11372839, “Unraveling the Potential of Vitamin B3-Derived Salts with a Salicylate Anion as Dermal Active Agents for Acne Treatment” (Molecular Pharmaceutics, 2024).
≈ marks a conversion by molar mass, not a printed value. Where “and” joins values, the source holds several entries; their conditions need not be identical. Identical values can stand only once. Like-named read-outs stand apart in the source and are kept apart here.

Columns and labels:
[1] = Octanol–water partition coefficient, shake-flask method (OECD Test No. 107); format: physicochemical
Method: The octanol–water partition coefficients (KOW) of the synthesized products were estimated by the shake-flask method according to the OECD Test No. 107 guidelines (Partition Coefficient n-Octanol/Water: Shake-Flask Method). Measurements were performed using mutually saturated distilled water and 1-octanol in a glass vial containing a magnetic stir bar. First, the synthesized products were dissolved in distilled water (or 1-octanol) at a chosen concentration (0.01 mol per 1 L of octanol or water), and then proper amounts of the second solvent (octanol or water) were added. Subsequently, two duplicate runs were carried out with different solvent ratios: 4 mL of 1-octanol and 2 mL of water (2:1), 4 mL of 1-octanol and 4 mL of water (1:1), and 4 mL of 1-octanol and 8 mL of water ([…]). All vials were shaken at a constant temperature of 25 °C. After 24 h, all samples were centrifuged and the aqueous and octanolic phases were collected with a syringe. The concentrations of compounds in water were determined spectrophotometrically using a Rayleigh UV-1601 spectrophotometer (Beijing Beifen-Ruili Analytical, China) based on calibration curves made previously (at λmax = 262 nm) vs concentration for each substance. Two repetitions of each measurement were performed in a specific solvent ratio (1:1, 1:2, and 2:1). Finally, the log KOW was calculated as the average of six results collected for each compound.
The outermost layer of the skin (stratum corneum) contains around […] water, a relatively low amount compared to the rest of the human body. Given the hydrophobic nature of 1-octanol, it can be used as a simplified model for the stratum corneum.[50] The octanol–water partition coefficient (KOW) value represents the proportion between the concentrations of a substance in both liquid phases of a system composed of water and 1-octanol. […] The log KOW values are given in Figure 6 (exact values are provided in Table S4, Supporting Information).

Staphylococcus aureus = assay: MIC and MBC determination, microdilution method; format: cell-based; details: for MIC: 18 h, read-out: MIC, S. aureus; for MBC: read-out: MBC, S. aureus
Method: (§1) The antimicrobial activities of the compounds were tested against clinical strains of an aerobic Gram-negative bacterium—Pseudomonas aeruginosa (P. aeruginosa), facultative anaerobic Gram-positive bacteria—Staphylococcus aureus (S. aureus) and Staphylococcus epidermidis (S. epidermidis), anaerobic Gram-positive bacterium—Cutibacterium acnes (C. acnes), and yeast-like fungus—Candida albicans (C. albicans).
(§2) Aerobic and facultative anaerobic bacteria cultures were grown in Brain Heart Infusion broth (BHI, bioMerieux, France) at 35 °C ± 1 °C for 18 h, C. acnes cultures were grown in thioglycolate broth with resazurin (TGB, bioMerieux, France) at 35 ± 1 °C for 48 h, and yeast cultures were grown in Sabouraud dextrose broth (SDB, Merck, Germany) at 35 ± 1 °C for 24 h. After incubation, each culture was diluted in a suitable liquid medium: P. aeruginosa, S. aureus, and S. epidermidis—Mueller–Hinton broth (MHB; Oxoid, UK); C. acnes—TGB; and C. albicans—SDB, to obtain a final suspension containing about 10^6 CFU/mL.
(§3) The microdilution method was employed to determine the compounds’ MIC (Minimal Inhibitory Concentration) and MBC/MFC (Minimal Bactericidal Concentration/Minimal Fungicidal Concentration) against the tested bacterial and fungal strains.
(§4) The compounds were serially diluted (2-fold) in the respective media (P. aeruginosa, S. aureus, and S. epidermidis—MHB, C. acnes—TGB, and C. albicans—SDB in 96-well plates), and the microbial suspensions were added. The compounds were tested in the final concentration range of 4 096 to 0.125 μg/mL, and the final microbial inoculum was approximately 5 ×10^5 CFU/mL. The tests were incubated at 35 °C ± 1 °C for 18 h (P. aeruginosa, S. aureus, and S. epidermidis) or 24 h (C. albicans) or 48 h (C. acnes). C. acnes was incubated in an anaerobic atmosphere using a GENbag anaer (bioMerieux, France). Media (without the strains) added to the different concentrations of tested compounds and media inoculated with microbial suspension were used as a negative control and growth control, respectively.
(§5) The MIC was defined as the lowest concentration at which visible growth was inhibited. MBC and MFC concentrations were determined as an extension of the MIC test. […] The plates were incubated at 35 ± 1 °C for 18–72 h. C. acnes was incubated in an anaerobic atmosphere. The MBC/MFC was defined as the lowest concentration at which no growth was observed. All tests were performed in duplicate.

[2] = tested on: Staphylococcus epidermidis; assay: MIC and MBC determination, microdilution method; format: cell-based; details: for MIC: 18 h, read-out: MIC, S. epidermidis; for MBC: read-out: MBC, S. epidermidis
Method: as §1, §2, §3, §4, §5

[3] = Contact angle of aqueous solutions, sessile drop method on paraffin; format: physicochemical; details: aqueous solution, 25 °C
Method: The contact angle (CA) measurements were carried out using a DSA100S analyzer (Krüss, Germany, accuracy ±0.1°), at 25 °C. The determination of the contact angle was based on the sessile drop method, i.e., drops of the analyzed solution were deposited on a solid surface (paraffin). The images of the drops were taken with a CCD camera, digitized, and evaluated using Young–Laplace fitting. The CA was determined as the slope of the tangent line at the contact point between the 3 phases (solution, paraffin surface, and air).
In the case of seborrheic skin, which occurs among many people affected by acne, the epidermis is covered by a hydrophobic lipid layer, which impedes the penetration of active substances, especially those that are well soluble in water. In addition, ensuring proper drug absorption through the skin can also reduce the risk of side effects and increase the effectiveness of therapy.[72] The addition of surfactants, which improve the wettability of hydrophobic surfaces, can be a solution to this problem.[73],[74] […] Wettability analyses of aqueous solutions of the new APIs were carried out on paraffin, whose hydrophobicity is similar to that of the human skin.[75] Experiments were performed at concentrations corresponding to common NA and SAL contents in commercial formulations (0.25–1.00%).[67],[76],[77] Due to low solubilities of 5–7, tests for these salts were performed at concentrations of 0.25, 0.03, and 0.01%, respectively (please see Figure S43 in the Supporting Information).

Solubility in PBS = details: for Solubility in PBS, Class: Pharmacopeia solubility class, PBS pH 7.4, 25 °C
Method: The solubility in PBS solution was determined by placing 1 g (±0.0001) of tested compound in a round-bottom flask and adding specific parts of the PBS solution in portions until full dissolution. The samples were vigorously stirred for at least 5 min before the addition of the next portion of PBS, and the systems were thermostated at 25 °C. Three repetitions of the measurement were performed for each of the compounds.
Most studies on the solubility of novel APIs are carried out with pure water, aqueous PBS solutions were much more preferred due to their higher similarity to intra- and intercellular media in epidermis, while envisaging their use in transdermal delivery and skin care applications.[60] […] The collected data are presented in Figure 8 (as well as in Table S6 in the Supporting Information).

[4] = shake-flask, 25 °C, 24 h, average of six results, read-out: Octanol-water partition coefficient (log Kow)
[5] = volume of PBS (pH 7.4) to dissolve 1 g, 25 °C
[6] = clinical strain, tested 4 096 to 0.125 μg/mL, b = out of range

| Structure (SMILES) | logP at 24 h [1, 4] | MIC (Staphylococcus aureus) | MIC [2] | Contact angle ([3]; concentration 0.25%) | Contact angle ([3]; concentration 0.50%) | Contact angle ([3]; concentration 1.00%) | Solubility in PBS, Class (Solubility in PBS) | Solubility in PBS, PBS [ml] (Solubility in PBS; [5]) | logP at 24 h [1] | MIC (Staphylococcus aureus; [6]) | MBC (Staphylococcus aureus; [6]) | MIC [2, 6] | MBC [2, 6] | Solubility in PBS, PBS [ml] (Solubility in PBS; pH 7.4) | MBC (Staphylococcus aureus) | MBC [2] |
| --- | --- | --- | --- | --- | --- | --- | --- | --- | --- | --- | --- | --- | --- | --- | --- | --- |
| CCCCCCCC[n+]1cccc(C(N)=O)c1.O=C([O-])c1ccccc1O [compound 4] | 0.07 | 1020 µg/mL | 2050 µg/mL | 94.1 ° and 94 ° | 79.0 ° | 61.2 ° and 61 ° | Soluble (10-30) | 10 to 30 mL |  |  |  |  |  |  |  |  |
| O=C(O)c1ccccc1O [SAL, salicylic acid, reference compound] |  |  |  | 104.9 ° |  |  |  |  | 1.82 | 1020 µg/mL (≈ 7.41 mM) | 1020 µg/mL (≈ 7.41 mM) | 1020 µg/mL (≈ 7.41 mM) | 1020 µg/mL (≈ 7.41 mM) | 100 to 1000 mL |  |  |
| CCCCCCCCCC[n+]1cccc(C(N)=O)c1.O=C([O-])c1ccccc1O [compound 5] | 0.59 | 256 µg/mL | 256 µg/mL | 50.7 ° |  |  | Slightly Soluble (100-1000) | 100 to 1000 mL |  |  |  |  |  |  | 256 µg/mL | 256 µg/mL |
| CCCCCC[n+]1cccc(C(N)=O)c1.O=C([O-])c1ccccc1O [compound 3] | -0.18 | 2050 µg/mL | 4100 µg/mL | 107.0 ° | 103.4 ° | 98.51 ° | Very Soluble (<1) | < 1 mL |  |  |  |  |  |  |  |  |
